Data published in patent US20210087156A1, “PHARMACEUTICALLY ACCEPTABLE SALTS OF BENZODICYCLOALKANE DERIVATIVE, P[…] THEREOF, AND APPLICATION THEREOF” (priority 2018, published 2021).

Columns and labels:
[1] = In vivo test of rats: pharmacokinetics after oral administration; conditions: male, SD, rat, 10 mg/kg, oral administration of dezocine in rats, dose of dezocine 10mpk
Method: LC-MS/MS method was applied for the determination of the drug concentration in plasma at different times after the example compounds were orally administered to rats in order to study the pharmacokinetic behavior of the compounds of the invention in vivo in rats and evaluate their pharmacokinetic characteristics.
Test Animals: healthy Adult male SD rats (weight 200-300 g, 3, fasted), provided by SLAC company;
Administration and Dosage: (16 mg/kg or 24 mg/kg, 10 mL/kg, 5% 1,2-propanediol (1,2-Propanediol, Shanghai Titan Technology Co., Ltd. Lot No.: P1057349)) was administered via oral gavage to SD rats;
Blood collection: firstly, the animals which were selected to meet the test requirements prior to administration were weighed. The rats were bound before the blood collection, blood from each administered rat was taken at predetermined time points, (blood was collected at 0.083, 0.25, 0.5, 1, 2, 4, 6, 8 h before and after administration respectively, 9 time points in total), about 150 μl of blood was collected via orbital vein. Blood was transferred to a 1.5 ml tube to which K2EDTA was added previously. The collected blood sample was put on ice, and centrifuged to obtain plasma sample (2000 g, 5 min under 4° C.) within 15 minutes. All the plasma samples were stored at approximately −70° C. until analysis.
LC/MS/MS method was applied to determine the concentrations of the drug. […]

[2] = background statement, cited from earlier work
[3] = biological target: δ opioid receptors (Homo sapiens, UniProt P41143); conditions: background statement; cited from earlier work
Chain of δ opioid receptors (P41143 whole entry): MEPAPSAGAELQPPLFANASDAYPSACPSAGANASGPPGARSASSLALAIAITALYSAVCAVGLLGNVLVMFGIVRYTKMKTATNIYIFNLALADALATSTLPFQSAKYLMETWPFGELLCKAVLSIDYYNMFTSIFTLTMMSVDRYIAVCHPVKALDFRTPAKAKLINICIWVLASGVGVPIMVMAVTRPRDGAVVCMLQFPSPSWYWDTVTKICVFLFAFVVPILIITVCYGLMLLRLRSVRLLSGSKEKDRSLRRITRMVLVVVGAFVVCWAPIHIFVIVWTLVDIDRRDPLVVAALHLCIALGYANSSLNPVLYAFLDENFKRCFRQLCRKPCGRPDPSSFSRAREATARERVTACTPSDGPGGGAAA

SMILES: C[C@@]12CCCCC[C@@H](Cc3ccc(O)cc31)[C@@H]2N [dezocine]
- AUC [1]: 58.6 ng·h/mL
- oral bioavailability [2]: ≤ 5%
- time after which the blood drug concentration falls below the effective level ([2]; injection): 2 to 3 h
- activity on δ opioid receptors (in words) [3]: very weak
